Assay results from patent publication US20170183318A1, “AMIDE COMPOUNDS, METHODS FOR PREPARATION, AND USE THEREOF AS AGENTS FOR THE TREATMENT AND PREVENTION OF DISEASES CAUSED BY RNA- AND/OR DNA-CONTAINING VIRUSES, AND CONCOMITANT DISEASES” (OBSCHESTVO S OGRANICHENNOI OTVETSTVENNOSTIYU …, priority 2014, published 2017).
Where two headings read alike, the source gives them in different places. Starred links: 1 amine or outer side, 2 acyl side, 3 side chain; linkers in the order of their positions; H or OH if unused. Non-standard residues stand in square brackets, D forms with d. Residues, ends and D or L forms follow the SMILES beside them. ξ: configuration not given here. Glutaryl = O=C(CCCC(=O)[*:2])[*:1]; ξH = NC(Cc1c[nH]cn1)C(=O)O

Tests used:
human virus hRSV = test: Antiviral activity against mouse-adapted RS virus (body weight; viral titer in lungs titrated in Hep-2 cells); format: in vivo, mice; details: for hRSV in the lungs of mice, Day 5, lg / hRSV in the lungs of mice, Day 7, lg: 10% lung suspension titrated in Hep-2 cells (TCID); for hRSV in the lungs of mice, Day 5, lg / Body weight of the mice on day 5 after infection with hRSV (M ± SD) / hRSV in the lungs of mice, Day 7, lg / Body weight of the mice on day 7 after infection with hRSV (M ± SD): compounds 30 mg/kg, Ribavirin 40 mg/kg; for Body weight of the mice on day 5 after infection with hRSV (M ± SD) / Body weight of the mice on day 7 after infection with hRSV (M ± SD): orally once daily for 5 days, n = 6; for log reduction at 30 mg/kg: human respiratory syncytial virus, HEp-2, po
Method: Antiviral effectiveness of the chemical compounds against RSV in an experimental murine model in vivo was determined for human virus hRSV that was previously adapted to the growth in mouse lungs. The animals were infected with the virus at a dose of 0.5 log TCID50 intranasally under brief ether anesthesia in a volume of 0.05 ml/mouse. The studied compounds were administered orally once daily for 5 days according to the treatment regimen at a dose of 30 mg/kg. The first administration was made 24 hours after infection. Normal saline solution was administered to mice as placebo. Intact animals served as a negative control and were hold in a separate room under the same conditions as the experimental animals. Each experimental group comprised 12 animals.
The antiviral activity of the studied compounds was determined by the efficiency in the prevention of weight loss and by suppression of the reproduction of hRSV in the mouse lungs by measuring a viral titer in the experimental groups relative to the control on days 5 and 7 after infection.
In addition, the therapeutic action of the compounds of general formula I was determined by their ability to suppress the reproduction of hRSV in the mouse lungs on days 5 and 7 after infection. The viral titer was determined by the titration of a 10% lung suspension in Hep-2 cell culture. The result was registered 2 days after the incubation at 37° C. by TCID.

[1] = test system: human respiratory syncytial virus (strain A2); test: Antiviral activity against RS virus in a murine model of suppressed immune system (lung edema); format: in vivo; details: Balb/c mice, cyclophosphan-suppressed, RS-virus pneumonia; 30 mg/kg once daily for 5 days; M ± SD, n = 5; scores from possible 4
Method: Antiviral activity of the chemical compounds against human respiratory syncytial virus (strain A2, an infectious titer of 5×10^6 TCID50/mL) was assessed in a Balb/c murine model of viral pneumonia. The virus was inoculated to animals intranasally in a volume of 50 μL under brief ether anesthesia. The immune response in animals to RS virus was suppressed by intraperitoneal administration of cyclophosphan at a dose of 100 mg/kg 5 days before infection. The studied compounds were administered according to the treatment regimen once daily at a dose of 30 mg/kg for 5 days, starting 24 hours after infection. The activity of the compounds was determined by a reduction in edema of the lung infected with respiratory syncytial virus, compared to the control, on day 5 after infection.

[2] = test system: Coxsackie A2 virus (strain HCXV A2); test: Antiviral activity against Coxsackie virus in vivo (mortality and life expectancy of infected mice); details: for inhibition in vivo at 30 mg/kg / mortality at 30 mg/kg: Mus musculus, po; for inhibition in vivo at 30 mg/kg: 168 h, read-out: Protective index (%); for mortality at 30 mg/kg: 360 h, read-out: Total mortality, %; for Average life expectancy (days), Compared with control: difference vs virus control; for Average life expectancy (days), Relative: mice infected with 10LD50 HCXV A2
Method: In the study a trypsin-dependent strain HCXV A2 was used, previously adapted and causing death in mice from Coxsackie virus infection.
The experiment was carried out in white mice weighing 6 to 7 g. The animals were infected intramuscularly with a dose of 0.1 mL/mouse. The used infectious dose causing mortality in mice was 10LD50.
The ability of compounds to provide a therapeutic effect was determined by the mortality rate of HCXV A2 virus-infected mice in the experimental group relative to the group of untreated animals.
The studied compounds and placebo were administered orally according to the treatment regimen. Normal saline solution was administered to mice as placebo. Intact animals served as a negative control and were hold in a separate room under the same conditions as the experimental animals.
For the experiment, groups were formed with 14-15 animals each. Compounds were administered at a dose of 30 mg/kg of body weight. The studied compounds were administered orally once daily for 7 days (first administration was made 24 hours after infection). The animals were monitored for 15 days during which the animals were weighed and the mortality rate was registered every day.

[3] = 120 h, read-out: Suppression of the reproduction of hRSV in the lungs of mice, Day 5, Δlg
[4] = 168 h, read-out: Suppression of the reproduction of hRSV in the lungs of mice, Day 7, Δlg
[5] = 30 mg/kg orally once daily for 7 days, vs virus control
[6] = 30 mg/kg orally once daily for 7 days

SMILES	Body weight of the mice on day 5 after infection with hRSV (M ± SD) (human virus hRSV)	Body weight of the mice on day 7 after infection with hRSV (M ± SD) (human virus hRSV)	Degree of lung edema on day 5 after infection, score [1] [score]	inhibition in vivo at 30 mg/kg [2, 5] [%]	mortality at 30 mg/kg [2] [%]	Average life expectancy (days), Compared with control [2, 6]	Average life expectancy (days), Relative [2, 6] [days]	other results
O=C(O)CCCC(=O)NCCC1CNC=N1 (stereo not drawn) [Compound 4]	16.77 ± 0.20	17.08 ± 0.32	1.95 ± 0.31	–	–	–	–	hRSV in the lungs of mice, Day 5, lg (human virus hRSV): 2.58 ± 0.51 lg; hRSV in the lungs of mice, Day 7, lg (human virus hRSV): 1.38 ± 0.24 lg; log reduction at 30 mg/kg (human virus hRSV; [3]): 2.02 ± 0.51; log reduction at 30 mg/kg (human virus hRSV; [4]): 2.58 ± 0.53
O=C(O)CCCC(=O)NCCc1cscn1 [Compound 121]	16.35 ± 0.20	17.38 ± 0.29	1.30 ± 0.60	–	–	–	–	hRSV in the lungs of mice, Day 5, lg (human virus hRSV): 3.08 ± 0.47 lg; hRSV in the lungs of mice, Day 7, lg (human virus hRSV): 1.50 ± 0.14 lg; log reduction at 30 mg/kg (human virus hRSV; [3]): 1.52 ± 0.47; log reduction at 30 mg/kg (human virus hRSV; [4]): 2.09 ± 0.22
O=C(O)CCCC(=O)NCCc1cnon1 [Compound 29]	–	–	–	50	35.7	+13.7 days	26.7	–
NC(=O)C(CO)NC(=O)C(Cc1cnc[nH]1)NC(=O)CCCC(=O)O (stereo not drawn) [Compound 96] (Glutaryl-His-Ser-NH2; configuration not given here)	–	–	0.35 ± 0.11	–	–	–	–	–
O=C(O)CCCC(=O)NCCCc1ccco1 [Compound 32]	–	–	–	33	42.9	+10.0 days	22.2	–
O=C(O)CCCC(=O)NCCC1CNCCO1 (stereo not drawn) [Compound 9]	15.75 ± 0.33	16.18 ± 0.29	1.00 ± 0.17	–	–	–	–	–
NC(=O)CNC(=O)C(Cc1c[nH]cn1)NC(=O)CCCC(=O)O (stereo not drawn) [Compound 184] (Glutaryl-[ξH]-Gly-NH2)	–	–	1.00 ± 0.19	–	–	–	–	–
O=C(O)CCCC(=O)NCCc1cnco1 [Compound 123]	15.87 ± 0.20	17.55 ± 0.53	1.30 ± 0.17	–	–	–	–	hRSV in the lungs of mice, Day 5, lg (human virus hRSV): 2.50 ± 0.43 lg; hRSV in the lungs of mice, Day 7, lg (human virus hRSV): 1.33 ± 0.19 lg; log reduction at 30 mg/kg (human virus hRSV; [3]): 2.1 ± 0.43; log reduction at 30 mg/kg (human virus hRSV; [4]): 2.62 ± 0.5
CC(C)C(NC(=O)C(Cc1cnc[nH]1)NC(=O)CCCC(=O)O)C(N)=O (stereo not drawn) [Compound 90] (Glutaryl-His-Val-NH2; configuration not given here)	–	–	–	50	35.7	+15.1 days	25.9	–
O=C(O)CCCC(=O)NCCC1CCNC1 (stereo not drawn) [Compound 1]	16.43 ± 0.14	17.98 ± 0.26	1.3 ± 0.27	–	–	–	–	hRSV in the lungs of mice, Day 5, lg (human virus hRSV): 2.88 ± 0.59 lg; hRSV in the lungs of mice, Day 7, lg (human virus hRSV): 1.46 ± 0.17 lg; log reduction at 30 mg/kg (human virus hRSV; [3]): 1.73 ± 0.59; log reduction at 30 mg/kg (human virus hRSV; [4]): 2.34 ± 0.17
O=C(O)CCCC(=O)OCCc1cnc[nH]1 [Compound 71]	–	–	–	44	35.7	+16.4 days	28.6	–
O=C(O)CCCC(=O)NCCCc1ccccn1 [Compound 35]	–	–	1.48 ± 0.17	27	53.3	+5.9 days	16.6	–
COC(=O)C(NC(=O)C(Cc1cnc[nH]1)NC(=O)CCCC(=O)O)C(C)C (stereo not drawn) [Compound 89] (Glutaryl-His-Val-OMe; configuration not given here)	–	–	0.75 ± 0.17	27	53.3	+7.0 days	17.7	–
O=C(O)CCCC(=O)NCCc1cccnn1 [Compound 13]	–	–	–	36	46.7	+8.3 days	19.0	–
CN(CCc1cnc[nH]1)C(=O)CCCC(=O)O [Compound 117]	16.07 ± 0.12	16.48 ± 0.28	–	–	–	–	–	hRSV in the lungs of mice, Day 5, lg (human virus hRSV): 3.00 ± 0.41 lg; hRSV in the lungs of mice, Day 7, lg (human virus hRSV): 1.46 ± 0.24 lg; log reduction at 30 mg/kg (human virus hRSV; [3]): 1.6 ± 0.41; log reduction at 30 mg/kg (human virus hRSV; [4]): 2.22 ± 0.34
CC(CCC(=O)O)C(=O)NCCc1c[nH]cn1 (stereo not drawn) [Compound 30]	–	–	–	18	60	+2.4 days	13.1	–
O=C(O)CCCC(=O)NCCc1ccc[nH]1 [Compound 14]	–	–	–	–	50	+10.4 days	21.4	inhibition in vivo at 30 mg/kg [2]: 36%
O=C(O)CCCC(=O)NCCC1COCCN1 (stereo not drawn) [Compound 10]	16.18 ± 0.29	16.53 ± 0.20	–	–	–	–	–	–
O=C(O)CCCC(=O)NCCc1ccc(Cl)nc1 [Compound 36]	–	–	–	27	53.3	+6.0 days	16.7	–
CC(C)(CCC(=O)NC(Cc1c[nH]cn1)C(=O)O)C(=O)O (stereo not drawn) [Compound 75]	–	–	–	50	35.7	+14.3 days	27.3	–
COC(=O)C(NC(=O)C(Cc1cnc[nH]1)NC(=O)CCCC(=O)O)C(C)O (stereo not drawn) [Compound 148] (Glutaryl-His-Thr-OMe; configuration not given here)	–	–	2.00 ± 0.31	–	–	–	–	–
O=C(O)CCCC(=O)NCCC1CNCCN1 (stereo not drawn) [Compound 8]	15.18 ± 0.18	17.13 ± 0.27	–	–	–	–	–	–
O=C(O)CCCC(=O)NCCc1ncccn1 [Compound 12]	–	–	–	45	40	+14.2 days	24.9	–
COC(=O)C(C)NC(=O)C(Cc1cnc[nH]1)NC(=O)CCCC(=O)O (stereo not drawn) [Compound 91]	–	–	0.40 ± 0.11	–	–	–	–	–
O=C(O)CCCC(=O)NCCc1cncs1 [Compound 122]	16.93 ± 0.32	16.37 ± 0.21	–	–	–	–	–	hRSV in the lungs of mice, Day 5, lg (human virus hRSV): 3.04 ± 0.44 lg; hRSV in the lungs of mice, Day 7, lg (human virus hRSV): 1.75 ± 0.41 lg; log reduction at 30 mg/kg (human virus hRSV; [3]): 1.56 ± 0.44; log reduction at 30 mg/kg (human virus hRSV; [4]): 1.88 ± 0.47
O=C(O)CCCC(=O)NCCc1cn2ccccc2n1 [Compound 139]	–	–	1.75 ± 0.77	–	–	–	–	–
